US5183821A, “Method for treating leukemias using N-(2-dimethylaminoethyl)-3-amino-1,8-naphthalimide for treating leukemias and solid tumors” (priority 1991, dated 1993)
Entries after “also recorded” stand apart in the source; their conditions may differ.

System: CD2 F1 mice
Assay: Five daily dose (X5) mouse range-finding and lethality study
Type: in vivo
Description: A preclinical toxicology study of benzisoquinolinedione (NSC-308847) was done at Springborn Institute for Bioresearch, Inc. using CD2 F1 mice, Fischer 344 rats and beagle dogs. Animals were injected intravenously on a single dose (X1) or five daily dose (X5) regimen. Bulk drug was titrated with 0.5N HCl to form a salt solution of benzisoquinolinedione at a pH of 5.0-6.5. Sterile 0.9% saline was used for diluting the dosing solutions and was used for the vehicle control animals.
The deaths generally were preceded by rough hair coat, decreased activity, hunched posture and dehydration. […] Males and females were similarily affected on both schedules.
Defined Doses for the Five Daily Dose Mouse Lethality

[1] = X5, listed as benzisoquinolinedione

Structure (SMILES): CN(C)CCN1C(=O)c2cccc3cc(N)cc(c23)C1=O [Example 9, 1H-Benz[de]isoquinoline-1,3(2H)-dione, 5-amino-2-[2-(dimethylamino)ethyl]]
- body weight, mice (X5): Dose-related weight loss was mild to severe initially
- time of mortality, mice [1]: between days 1 and 10; also recorded: between days 6 and 10
- toxic signs, mice [1]: labored breathing, exophthalmus, hyperextension of limbs, loss of locomotor ability, struggling, rough hair coat, huched posture, dehydration, increased irritability, decreased activity, swollen and necrotic tails, squinted eyes, prostration and moribundity; also recorded: ataxia and swollen faces with closed eyes and ocular discharge; also recorded: tail lesions which persisted to termination on day 33
- LD10 (combined sexes): 24.9 mg/kg/day
- LD10, second dose column (combined sexes): 74.7
- LD90 (combined sexes): 32.5 mg/kg/day
- LD90, second dose column (combined sexes): 97.5
- Slope (lethality) (combined sexes): 22.3
- LD10 (male): 24.3 mg/kg/day
- LD10, second dose column (male): 72.9
- LD90 (male): 34.2 mg/kg/day
- LD90, second dose column (male): 102.6
- Slope (lethality) (male): 17.2
